*1 amine or outer side, *2 acyl side, *3 side chain or, on linkers, in order; H or OH if unused. Where a SMILES comes first, the peptide text is derived from it. Bridges are numbered along the chain shown (N, C = ends). [ ]: non-standard residue; d: D form. The star is where a group is joined. hPhe(3-Cl-4-CF3) = N[C@@H](CCc1ccc(C(F)(F)F)c(Cl)c1)C(=O)O; X39 = O=C([C@H](Cc1ccc(C(F)(F)F)cc1)N(CC1CCC1)[*:1])[*:2]; X22 = C=CCCN([C@@H](Cc1ccc(C(F)(F)F)cc1)C(=O)[*:2])[*:1]; NPrPhe(4-CF3) = CCCN[C@@H](Cc1ccc(C(F)(F)F)cc1)C(=O)O; X46 = C=CCCN([C@@H](Cc1ccc(C)cc1)C(=O)[*:2])[*:1]; NMeGly(cPent) = CN[C@H](C(=O)O)C1CCCC1; Pro(4,4-F2) = O=C(O)[C@@H]1CC(F)(F)CN1; NMeGly(cBu) = CN[C@H](C(=O)O)C1CCC1; NMeAllylGly = C=CC[C@H](NC)C(=O)O; NMeD = CN[C@@H](CC(=O)O)C(=O)O; NMeL = CN[C@@H](CC(C)C)C(=O)O; NMeAbu = CC[C@H](NC)C(=O)O; Morpholide = C1CN(*)CCO1; NMeA = CN[C@@H](C)C(=O)O; Ac5c = NC1(C(=O)O)CCCC1; Aze = O=C(O)[C@@H]1CCN1; NEtG = CCNCC(=O)O; Sar = CNCC(=O)O
Key:
[1] = molecular target: GDP-bound NRAS wild-type protein (Homo sapiens, UniProt P01111); experiment: Binding to NRAS by surface plasmon resonance (SPR), KD and KD ratio to KRAS
Chain of GDP-bound NRAS wild-type protein (P01111 whole entry): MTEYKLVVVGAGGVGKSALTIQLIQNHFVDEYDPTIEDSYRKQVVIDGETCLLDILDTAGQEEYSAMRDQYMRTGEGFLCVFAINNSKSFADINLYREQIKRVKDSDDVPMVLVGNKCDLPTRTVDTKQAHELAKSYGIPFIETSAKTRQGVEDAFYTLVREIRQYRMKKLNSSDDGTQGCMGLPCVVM
Outline: (§1)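 Recombinant RAS proteins bearing a biotinylated Avi tag and loaded with GDP served as the captured ligand, recaptured fresh every cycle. Binding responses were referenced to an uncoated surface and a buffer-only blank cycle. Dissociation constants were obtained by 1:1 model fitting at 30°C.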

HRAS wild-type protein = HRAS wild-type protein (Homo sapiens, UniProt P01112); experiment: Binding to HRAS by surface plasmon resonance (SPR), KD and KD ratio to KRAS
Chain of HRAS wild-type protein (P01112 whole entry): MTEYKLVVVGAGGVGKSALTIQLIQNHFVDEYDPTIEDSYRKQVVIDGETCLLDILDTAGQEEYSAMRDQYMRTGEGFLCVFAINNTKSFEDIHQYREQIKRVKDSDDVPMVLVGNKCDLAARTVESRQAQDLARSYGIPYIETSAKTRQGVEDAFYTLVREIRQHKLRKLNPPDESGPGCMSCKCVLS
Outline: as §1

[2] = system: human lung cancer strain NCI-H441; format: cell-based
Outline: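 Signal came from […] measured per well once the reagent was added. Beforehand, cells were cultured at 37°C and 5% carbon dioxide on a compound series serially diluted in dimethyl sulfoxide.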

[3] = ratio of the KD value with respect to GDP-bound NRAS wild-type protein to the KD value with respect to KRAS
[4] = ratio of the KD value with respect to HRAS wild-type protein to the KD value with respect to KRAS
[5] = ratio of KD value for GDP-bound NRAS wild-type protein to KD value for KRAS (SPR)
[6] = ratio of KD value for HRAS wild-type protein to KD value for KRAS (SPR)
[7] = ratio of KD for GDP-bound NRAS wild-type protein to KD for KRAS
[8] = ratio of KD for HRAS wild-type protein to KD for KRAS

Compound	IC50 [2] [nM]	NRAS /KRAS [1, 3]	HRAS /KRAS (HRAS wild-type protein; [4])	NRAS /KRAS [1, 5]	HRAS /KRAS (HRAS wild-type protein; [6])	NRAS /KRAS [1, 7]	HRAS /KRAS (HRAS wild-type protein; [8])
CC[C@H](C)[C@@H]1NC(=O)[C@H](CC(C)C)N(C)C(=O)C[C@@H](C(=O)N2CCOCC2)N(C)C(=O)[C@H](C2CCCC2)N(C)C(=O)C2(CCCC2)NC(=O)[C@@H]2CCCN2C(=O)[C@H](CCc2ccc(C(F)(F)F)c(Cl)c2)NC(=O)CN(C)C(=O)[C@H](Cc2ccc(C(F)(F)F)cc2)N(CC2CCC2)C(=O)CN(C)C(=O)CN(C)C1=O [PP0123] ([NMeL]I[Sar][Sar][X39][Sar][hPhe(3-Cl-4-CF3)]P[Ac5c][NMeGly(cPent)][NMeD]-Morpholide; lactam N-11)	12.5	–	–	–	–	B (a compound having 3 or more and less than 10 is denoted as B)	C (A compound having a KD ratio of 0.1 or more and less than 3 is denoted as C)
C=CCCN1C(=O)[C@H](CC=C)N(C)C(=O)CN(C)C(=O)[C@H]([C@@H](C)CC)NC(=O)[C@H](CC(C)C)N(C)C(=O)C[C@@H](C(=O)N2CCOCC2)N(C)C(=O)[C@H](C2CCCC2)N(C)C(=O)C2(CCCC2)NC(=O)[C@@H]2CCCN2C(=O)[C@H](CCc2ccc(C(F)(F)F)c(Cl)c2)NC(=O)CN(C)C(=O)[C@@H]1Cc1ccc(C)cc1 [PP0140] ([NMeL]I[Sar][NMeAllylGly][X46][Sar][hPhe(3-Cl-4-CF3)]P[Ac5c][NMeGly(cPent)][NMeD]-Morpholide; lactam N-11)	712	–	–	–	–	C (A compound having a KD ratio of 0.1 or more and less than 3 is denoted as C)	B (a compound having 3 or more and less than 10 is denoted as B)
CCCN1C(=O)CN(C)C(=O)CN(CC)C(=O)[C@H]([C@@H](C)CC)NC(=O)[C@H](CC(C)C)N(C)C(=O)C[C@@H](C(=O)N(C)C)N(C)C(=O)[C@H](C2CCCC2)N(C)C(=O)C2(CCCC2)NC(=O)[C@@H]2CC(F)(F)CN2C(=O)[C@H](CCc2ccc(C(F)(F)F)c(Cl)c2)NC(=O)CN(C)C(=O)[C@@H]1Cc1ccc(C(F)(F)F)cc1 [PP0425] ([NMeL]I[NEtG][Sar][NPrPhe(4-CF3)][Sar][hPhe(3-Cl-4-CF3)][Pro(4,4-F2)][Ac5c][NMeGly(cPent)][NMeD]-NMe2; lactam N-11)	6.5	B (a compound having 3 or more and less than 10 is denoted as B)	C (A compound having a KD ratio of 0.1 or more and less than 3 is denoted as C)	–	–	–	–
CCCN1C(=O)CN(C)C(=O)CN(C)C(=O)[C@H]([C@@H](C)CC)NC(=O)[C@H](CC)N(C)C(=O)C[C@@H](C(=O)N2CCOCC2)N(C)C(=O)[C@H](C2CCCC2)N(C)C(=O)C2(CCCC2)NC(=O)[C@@H]2CCCN2C(=O)[C@H](CCc2ccc(C(F)(F)F)c(Cl)c2)NC(=O)CN(C)C(=O)[C@@H]1Cc1ccc(C(F)(F)F)cc1 [PP0190] ([NMeAbu]I[Sar][Sar][NPrPhe(4-CF3)][Sar][hPhe(3-Cl-4-CF3)]P[Ac5c][NMeGly(cPent)][NMeD]-Morpholide; lactam N-11)	4.1	–	–	–	–	B (a compound having 3 or more and less than 10 is denoted as B)	B (a compound having 3 or more and less than 10 is denoted as B)
C=CCCN1C(=O)CN(C)C(=O)CN(C)C(=O)[C@H]([C@@H](C)CC)NC(=O)[C@H](CC(C)C)N(C)C(=O)C[C@@H](C(=O)N2CCOCC2)N(C)C(=O)[C@H](C2CCCC2)N(C)C(=O)C2(CCCC2)NC(=O)[C@@H]2CCCN2C(=O)[C@H](CCc2ccc(C(F)(F)F)c(Cl)c2)NC(=O)CN(C)C(=O)[C@@H]1Cc1ccc(C(F)(F)F)cc1 [PP0129] ([NMeL]I[Sar][Sar][X22][Sar][hPhe(3-Cl-4-CF3)]P[Ac5c][NMeGly(cPent)][NMeD]-Morpholide; lactam N-11)	8.8	–	–	–	–	B (a compound having 3 or more and less than 10 is denoted as B)	C (A compound having a KD ratio of 0.1 or more and less than 3 is denoted as C)
CCCN1C(=O)[C@@H]2CCN2C(=O)[C@H](C)N(C)C(=O)[C@H]([C@@H](C)CC)NC(=O)[C@H](C2CCC2)N(C)C(=O)C[C@@H](C(=O)N2CCOCC2)N(C)C(=O)[C@H](C2CCCC2)N(C)C(=O)C2(CCCC2)NC(=O)[C@@H]2CCCN2C(=O)[C@H](CCc2ccc(C(F)(F)F)c(Cl)c2)NC(=O)CN(C)C(=O)[C@@H]1Cc1ccc(C(F)(F)F)cc1 [PP0192] ([NMeGly(cBu)]I[NMeA][Aze][NPrPhe(4-CF3)][Sar][hPhe(3-Cl-4-CF3)]P[Ac5c][NMeGly(cPent)][NMeD]-Morpholide; lactam N-11)	2.6	–	–	–	–	C (A compound having a KD ratio of 0.1 or more and less than 3 is denoted as C)	B (a compound having 3 or more and less than 10 is denoted as B)

Second part, led by results:

IC50 [2] [nM]	Compound	NRAS /KRAS [1, 3]	HRAS /KRAS (HRAS wild-type protein; [4])	NRAS /KRAS [1, 5]	HRAS /KRAS (HRAS wild-type protein; [6])	NRAS /KRAS [1, 7]	HRAS /KRAS (HRAS wild-type protein; [8])
2.9	CCO[C@@H]1C[C@H]2C(=O)NC3(CCC3)C(=O)N(C)[C@@H](C3CCCC3)C(=O)N(C)[C@H](C(=O)N(C)C)CC(=O)N(C)[C@@H](CC(C)(C)C)C(=O)N[C@@H]([C@@H](C)CC)C(=O)N(C)CC(=O)N(C)[C@H]3CCCCN(C3=O)[C@@H](Cc3ccc(C(F)(F)F)cc3)C(=O)N(C)CC(=O)N[C@@H](CCc3cc(F)c(C(F)(F)F)c(F)c3)C(=O)N2C1 [PP0699]	C (A compound having a KD ratio of 0.1 or more and less than 3 is denoted as C)	C (A compound having a KD ratio of 0.1 or more and less than 3 is denoted as C)	–	–	–	–
98.7	CC[C@H](C)[C@@H]1NC(=O)[C@H](CC(C)C)N(C)C(=O)C[C@@H](C(=O)N(C)C)N(C)C(=O)[C@H](C2CCCC2)N(C)C(=O)C2(CC(C)(C)C2)NC(=O)CN(C)C(=O)[C@H](CCc2cc(F)c(C(F)(F)F)c(F)c2)NC(=O)CN(C)C(=O)[C@H](Cc2ccc(C(F)(F)F)cc2)N2CC/C=C\C[C@@H](C2=O)N(C)C(=O)CN(C)C1=O [PP1776]	–	–	A (a compound having 10 or more and less than 20 is denoted as A)	A (a compound having 10 or more and less than 20 is denoted as A)	–	–
4.9	CCO[C@@H]1C[C@H]2C(=O)NC3(CC(C)(C)C3)C(=O)N(C)[C@@H](C3CCCC3)C(=O)N(CC)[C@H](C(=O)N(C)C)CC(=O)N(C)[C@@H](CC)C(=O)N[C@@H]([C@@H](C)CC)C(=O)N(C)CC(=O)N(C)[C@H]3C/C=C\CCN(C3=O)[C@@H](Cc3ccc(C(F)(F)F)cc3)C(=O)N(C)CC(=O)N[C@@H](CCc3cc(F)c(C(F)(F)F)c(F)c3)C(=O)N2C1 [PP1768]	–	–	A (a compound having 10 or more and less than 20 is denoted as A)	A (a compound having 10 or more and less than 20 is denoted as A)	–	–
96.9	CCO[C@@H]1C[C@H]2C(=O)NC3(CCC3)C(=O)N(C)[C@@H](C3CCCC3)C(=O)N(C)[C@H](C(=O)N(C)C)CC(=O)N(C)[C@@H](CC)C(=O)N[C@@H]([C@@H](C)CC)C(=O)N3C[C@H](OCC)C[C@H]3C(=O)N(C)[C@H]3C/C=C\CCN(C3=O)[C@@H](Cc3ccc(C(F)(F)F)cc3)C(=O)N(C)CC(=O)N[C@@H](CCc3cc(F)c(C(F)(F)F)c(F)c3)C(=O)N2C1 [PP1057]	–	–	–	–	A (a compound having 10 or more and less than 20 is denoted as A)	B (a compound having 3 or more and less than 10 is denoted as B)
197	CC[C@H](C)[C@@H]1NC(=O)[C@H](COC)N(C)C(=O)C[C@@H](C(=O)N2CCOCC2)N(C)C(=O)[C@H](C2CCCC2)N(C)C(=O)C2(CCC2)NC(=O)[C@@H]2CC(F)(F)CN2C(=O)[C@H](CCc2cc(F)c(C(F)(F)F)c(F)c2)NC(=O)CN(C)C(=O)[C@H](Cc2ccc(C(F)(F)F)cc2)N2CCCCC[C@@H](C2=O)N(C)C(=O)[C@@H]2CCN2C1=O [PP0866]	–	–	–	–	B (a compound having 3 or more and less than 10 is denoted as B)	B (a compound having 3 or more and less than 10 is denoted as B)
16.7	CCO[C@@H]1C[C@H]2C(=O)NC3(CC(C)(C)C3)C(=O)N(C)[C@@H](C3CCCC3)C(=O)N(C)[C@H](C(=O)N(CC)CC)CC(=O)N(C)[C@@H](CC)C(=O)N[C@@H]([C@@H](C)CC)C(=O)N(C)CC(=O)N(C)[C@H]3C/C=C\CCN(C3=O)[C@@H](Cc3ccc(C)cc3)C(=O)N(C)CC(=O)N[C@@H](CCc3ccc(C(F)(F)F)c(OC)c3)C(=O)N2C1 [PP1881]	–	–	A (a compound having 10 or more and less than 20 is denoted as A)	A (a compound having 10 or more and less than 20 is denoted as A)	–	–
10.5	CCC[C@H]1C(=O)N[C@@H]([C@@H](C)CC)C(=O)N(C)CC(=O)N(C)[C@H]2C/C=C\CCN(C2=O)[C@@H](Cc2ccc(C(F)(F)F)cc2)C(=O)N(C)CC(=O)N[C@@H](CCc2ccc3c(C)cn(C)c3c2)C(=O)N2C[C@H](OCC)C[C@H]2C(=O)NC2(CC(C)(C)C2)C(=O)N(C)[C@@H](C2CCCC2)C(=O)N(C)[C@H](C(=O)N(C)C)CC(=O)N1C [PP2897]	–	–	–	–	A (a compound having 10 or more and less than 20 is denoted as A)	B (a compound having 3 or more and less than 10 is denoted as B)
7.1	CCO[C@@H]1C[C@H]2C(=O)NC3(CCC3)C(=O)N(C)[C@@H](C3CCCC3)C(=O)N(C)[C@H](C(=O)N3CCOCC3)CC(=O)N(C)[C@@H](CC3CC3)C(=O)N[C@@H]([C@@H](C)CC)C(=O)N(C)CC(=O)N(C)[C@H]3CCCCN(C3=O)[C@@H](Cc3ccc(C(F)(F)F)cc3)C(=O)N(C)CC(=O)N[C@@H](CCc3cc(F)c(C(F)(F)F)c(F)c3)C(=O)N2C1 [PP0712]	C (A compound having a KD ratio of 0.1 or more and less than 3 is denoted as C)	C (A compound having a KD ratio of 0.1 or more and less than 3 is denoted as C)	–	–	–	–

— patent EP4603105A1, “PHARMACEUTICAL COMPOSITION CONTAINING CYCLIC COMPOUND HAVING SELECTIVE KRAS INHIBITORY EFFECT AGAINST HRAS AND NRAS” (CHUGAI SEIYAKU KABUSHIKI KAISHA, priority 2022, dated 2024)
